Data published in patent US20250314636A1, “METHOD OF PREPARING AND EXPANDING A POPULATION OF IMMUNE CELLS FOR CANCER THERAPY, POTENCY ASSAY FOR TUMOR RECOGNITION, BIOLOGICAL VACCINE PREPARATION AND EPITOPETARGET FOR ANTIBODIES” (FUNDAÇÃO D. ANNA DE SOMMER CHAMPALIMAUD E DR. CARLOS MONTEZ …, priority 2022, published 2025).

How the values were obtained:
[1] = tested on: TIL; assay: Peptide recognition assay in TIL (IFN-γ ELISA / IL-17 in supernatant, 7 days); format: cell-based, human; parameters: IFN-γ production, TIL: unit not given here; conditions: for Pancreatic TIL D1599 IFN-y / Pancreatic TILD1599 IL 17: Pancreatic TIL D1599; for IFN-γ production, TIL: 10e4 TIL/well co-cultured with the peptide for 7 days, supernatant tested
Procedure: (§1) Peptides from tumor-associated antigens (TAAs), listed in Table 5 were placed at 1 ug/well in duplicates using anti-CD3 at 30 ng/mL as well as PHA at 5 μg/mL as positive controls.
(§2) The differences in TIL versus PBMCs can also be defined by peptide reactivity. 10e^4 TIL or 10e^4 PBMC/well were co-cultured with the peptides listed in Table 11 below for 7 days and the supernatants were tested for IFN-γ production.

[2] = tested on: PBMCs; assay: Peptide recognition assay in PBMCs (IFN-γ in supernatant, 7 days); format: cell-based, human; conditions: 10e4 PBMC/well co-cultured with the peptide for 7 days, supernatant tested
Procedure: as §1, §2

| Sequence | Pancreatic TIL D1599 IFN-y [1] | Pancreatic TILD1599 IL 17 [1] | IFN-γ production, TIL [1] | IFN-γ production, PBMCs [2] |
| --- | --- | --- | --- | --- |
| LVVVGAGSVGKSALT [KRAS_G13S] | 24 pg/mL | 0 pg/mL | – | – |
| LVVVGAGVVGKSALT | – | – | 0 | 0 |
| LVVVGAGVVGKSALT [KRAS_G13V] | 10 pg/mL | 0 pg/mL | – | – |
| LVVVGAVGVGKSALT | – | – | 0 | 0 |
| LVVVGAVGVGKSALT [KRAS fitted for HLA-DQB1*06:02] | 0 pg/mL | 0 pg/mL | – | – |
| MALPTARPLLGSCGT | – | – | 0 | 0 |
| MALPTARPLLGSCGT [Mesothelin MPF-1] | 0 pg/mL | 0 pg/mL | – | – |
| MQEALSGTPCLLGPG | – | – | 0 | 0 |
| MQEALSGTPCLLGPG [Mesothelin GPI P40 (601-605)] | 0 pg/mL | 120 pg/mL | – | – |
| PMVLVGNNCDLPSRT | – | – | 0 | 0 |
| PMVLVGNNCDLPSRT [KRAS_K117N] | 32 pg/mL | 0 pg/mL | – | – |
| PVTSLSSASTGDTTP | – | – | 0 | 0 |
| PVTSLSSASTGDTTP [MUC4-P4 [WT]] | 17 pg/mL | 0 pg/mL | – | – |
| PVTSLSSVSTGDTTP | – | – | 0 | 0 |
| PVTSPSSASTGHAIP | – | – | 0 | 0 |
| PVTSPSSASTGHAIP [MUC4-P10 [WT]] | 5 pg/mL | 0 pg/mL | – | – |
| PVTSPSSESTGHAIP | – | – | 0 | 0 |
| PVTSPSSESTGHAIP [MUC4-P9 [Mut]] | 0 pg/mL | 0 pg/mL | – | – |
| PVTSTSSASTGHATP | – | – | 0 | 0 |
| PVTSTSSASTGHATP [MUC4-P8 [WT]] | 0 pg/mL | 2 pg/mL | – | – |
| PVTSTSSVSTGHATP | – | – | 0 | 0 |
| PVTSTSSVSTGHATP [MUC4-P7 [Mut][WT]] | 0 pg/mL | 0 pg/mL | – | – |

| Sequence | Pancreatic TIL D1599 IFN-y [1] | Pancreatic TILD1599 IL 17 [1] | IFN-γ production, TIL [1] | IFN-γ production, PBMCs [2] |
| --- | --- | --- | --- | --- |
| SVSTMDALRGLLPVL | – | – | 0 | 0 |
| SVSTMDALRGLLPVL [Mesothelin MPF-17] | 0 pg/mL | 0 pg/mL | – | – |
| TLGEFLKLDRERAKN | – | – | 0 | 0 |
| TLGEFLKLDRERAKN [Survivin (97-111)] | 0 pg/mL | 0 pg/mL | – | – |
| TPLPVTDASSASTGH [MUC4-P1 [Mut][WT]] | 0 pg/mL | 3 pg/mL | – | – |
| TPLPVTDNSSASTGD [MUC4-P11 [Mut]] | 19 pg/mL | 0 pg/mL | – | – |
| TPLPVTDTSSASTGD [MUC4-P12 [WT]] | 34 pg/mL | 0 pg/mL | – | – |
| TPLPVTDTSSASTGH [MUC4-P2 [WT]] | 0 pg/mL | 1 pg/mL | – | – |
| TTPLPVTIPSSASSG [MUC4-P5 [Mut][WT]] | 12 pg/mL | 0 pg/mL | – | – |
| TTPLPVTSPSSASSG [MUC4-P6 [WT]] | 0 pg/mL | 0 pg/mL | – | – |
| VTDASSASTGH [MUC4-P2_fitted for HLA-A*01:01] | 0 pg/mL | 14 pg/mL | – | – |
| VTDTSSASTGH [MUC4-P1_fitted for HLA-A*01:01] | 0 pg/mL | 24 pg/mL | – | – |
| WAVRPQDLDTCDPRQ [Mesothelin GPI P13] | 0 pg/mL | 0 pg/mL | – | – |
| YEQLDVLKHKLDELY [Mesothelin GPI P5] | 0 pg/mL | 0 pg/mL | – | – |
| YKLVVVGAAGVGKSALT [Kras_P7 (G12A)] | 0 pg/mL | 65 pg/mL | – | – |
| YKLVVVGACGVGKSALT [Kras_P6 (G12C)] | 0 pg/mL | 0 pg/mL | – | – |
| YKLVVVGADGVGKSALT [Kras_P3 (G12D)] | 0 pg/mL | 0 pg/mL | – | – |
| YKLVVVGAGGVGKSALT [Kras_P1 (G12 WT)] | 0 pg/mL | 37 pg/mL | – | – |
| YKLVVVGARGVGKSALT [Kras_P4 (G12R)] | 0 pg/mL | 0 pg/mL | – | – |
| YKLVVVGASGVGKSALT [Kras_P5 (G12S)] | 14 pg/mL | 0 pg/mL | – | – |
| YKLVVVGAVGVGKSALT [Kras_P2 (G12V)] | 0 pg/mL | 2 pg/mL | – | – |
